# Experimental data as given in patent US20250228891A1, “COMBINATIONS CONTAINING OXYLANTHANUM CARBONATE FOR TREATING HYPERPHOSPHATEMIA” (UNICYCIVE THERAPEUTICS, INC., priority 2024, published 2025).
# Columns and labels:
# [1] = clinical trials; % of patients; cited from earlier work
# Sprague Dawley rats = experiment: Urinary phosphate excretion in rats fed a high phosphorus diet (OLC+Tenapanor Combo Study, Example 1); type: in vivo, rat; settings: Days 9 to 11
# Experimental: FIG. 1. Represents the Study Design of the OLC+Tenapanor Combo Study described in Example 1. The study consisted of acclimatization, randomization, in vivo study period, and termination. Animals were acclimated from Day-7 to Day-4. On study Day-1, animals were randomized into eight groups: one vehicle; one tenapanor (0.15 mg/kg); three oxylanthanum carbonate (OLC) (0.75%, 1.5%, and 3%); and three combination treatment with OLC and tenapanor (OLC 0.75%, 1.5%, and 3%+tenapanor 0.15 mg/kg). On study Day 1, animals were switched to high phosphorus diets. Animals were euthanized on Day 11 two hours post last dose. Legend: 1 Body weight and food intake were measured daily from study Day-3 until termination. 2 During the in vivo study period (Days 1 to 11), vehicle and tenapanor were dosed orally twice/day whereas OLC was incorporated into the diets. 3 Urine samples were collected on Days 9, 10, and 11 for phosphate measurements and blood samples were collected for serum phosphate and sodium measurements on day 11 after the final urine sampling. Sixty-four male Sprague Dawley rats of 9 weeks old (11 weeks by the end of the study) were fed standard chow one week prior to study start. On study day-1, animals were randomized into 8 study groups (n=8): 1) vehicle, 2) tenapanor 0.15 mg/kg, 3) Vehicle+OLC 0.75%, 4) Vehicle+OLC 1.5%, 5) Vehicle+OLC 3%, 6) tenapanor 0.15 mg/kg+OLC 0.75%, 7) tenapanor 0.15 mg/kg+OLC 1.5%, and 8) tenapanor 0.15 mg/kg+OLC 3%. Vehicle and tenapanor were dosed PO twice/day whereas OLC was incorporated into the diets. On study Day 1, all animals were switched to high phosphorus diets consisting of chow spiked with 0.4% inorganic phosphorus [(1:1 sodium:potassium salt-wt./wt.), 1.1% total phosphorus content] for the rest of the study. Body weight and food intake were measured daily from study Day-3 until termination. 24-hour urine samples were collected using metabolic cages on day 9, 10, and 11 for urinary P measurements. Mean urinary phosphate excretion for each animal from Days 9 to 11 were averaged by treatment group. While we examined effects separately in each OLC dose group, our primary analyses compared pooled results in the three OLC dose groups combined. We compared pooled results using one-way ANOVA followed by Games-Howell test, and individual groups with vehicle using one-way ANOVA followed by Dunnett's multiple comparison test. A threshold of p<0.05 was used to determine significant differences between groups. Statistical Package for the Social Sciences (SPSS) was used for all statistical analyses. The Bliss model of independence was employed to determine if the combination of OLC and tenapanor was independent, synergistic, or antagonistic. (Zhao W, et al. J Biomol Screen June 2014; 19 (5): 817-821). The Bliss model compares the predicted combination response, calculated using the complete additivity of probability theory based on the observed effect of each individual agent administered alone, with the observed effect of combination treatment. The mean percentage reduction in urinary phosphate excretion relative to vehicle by treatment group was calculated by averaging urinary phosphate excretion for each animal from Days 9 to 11. Paired t-tests were conducted to assess the statistical significance between observed and predicted results. 2-tailed p-values<0.05 are considered to be statistically significant.
# [2] = Body weight and food intake in the OLC+Tenapanor Combo Study (Example 1); settings: rat, in vivo
# Experimental: FIG. 1. Represents the Study Design of the OLC+Tenapanor Combo Study described in Example 1. The study consisted of acclimatization, randomization, in vivo study period, and termination. Animals were acclimated from Day-7 to Day-4. On study Day-1, animals were randomized into eight groups: one vehicle; one tenapanor (0.15 mg/kg); three oxylanthanum carbonate (OLC) (0.75%, 1.5%, and 3%); and three combination treatment with OLC and tenapanor (OLC 0.75%, 1.5%, and 3%+tenapanor 0.15 mg/kg). On study Day 1, animals were switched to high phosphorus diets. Animals were euthanized on Day 11 two hours post last dose. Legend: 1 Body weight and food intake were measured daily from study Day-3 until termination. 2 During the in vivo study period (Days 1 to 11), vehicle and tenapanor were dosed orally twice/day whereas OLC was incorporated into the diets. 3 Urine samples were collected on Days 9, 10, and 11 for phosphate measurements and blood samples were collected for serum phosphate and sodium measurements on day 11 after the final urine sampling. Sixty-four male Sprague Dawley rats of 9 weeks old (11 weeks by the end of the study) were fed standard chow one week prior to study start. […] Body weight and food intake were measured daily from study Day-3 until termination. […] The mean body weight (FIG. 2A) and food intake (FIG. 2B) were measured from Day 1 to 11.
# [3] = Games-Howell post-hoc, OLC = average of 0.75%, 1.5%, 3% in chow, tenapanor 0.15 mg/kg/po/bid
compound,measurement,setting,value
"CN1Cc2c(Cl)cc(Cl)cc2[C@H](c2cccc(S(=O)(=O)NCCOCCOCCNC(=O)NCCCCNC(=O)NCCOCCOCCNS(=O)(=O)c3cccc([C@@H]4CN(C)Cc5c(Cl)cc(Cl)cc54)c3)c2)C1.Cl.Cl [Tenapanor, 12,15-Dioxa-2,7,9-triazaheptadecanamide, 17-[[[3-[(4S)-6,8-dichloro-1,2,3,4-tetrahydro-2-methyl-4-isoquinolinyl]phenyl]sulphonyl]amino]-N-[2-[2-[2-[[[3-[(4S)-6,8-dichloro-1,2,3,4-tetrahydro-2-methyl-4-isoquinolinyl]phenyl]sulphonyl]amino]ethoxy]ethoxy]ethyl]-8-oxo-, hydrochloride (1:2)]",diarrhea observed in patients taking tenapanor,[1],53%
same,mean urinary phosphate excretion lower compared to the vehicle group,"Sprague Dawley rats; tenapanor 0.15 mg/kg PO bid, OLC pooled across 0.75, 1.5 and 3% in chow, n=8 per treatment group",8.5 mg/day
same,"Mean Difference (A − B) in mean urinary phosphate excretion, Treatment Group (A) = Vehicle, (B) = labelled treatment",Sprague Dawley rats; [3],8.510 mg/day
same,"Mean Difference (A − B) in mean urinary phosphate excretion, Treatment Group (A) = labelled treatment, (B) = OLC",Sprague Dawley rats; [3],3.583 mg/day
same,"Mean Difference (A − B) in mean urinary phosphate excretion, Treatment Group (A) = labelled treatment, (B) = OLC + Tenapanor",Sprague Dawley rats; [3],19.543 mg/day
same,"Mean Difference (A − B) in mean urinary phosphate excretion, Treatment Group (A) = labelled treatment, (B) = Vehicle",Sprague Dawley rats; [3],-8.510 mg/day
same,food intake compared with vehicle,[2],not significantly affected
